The record followed here is US20060115440A1, “Silver dihydrogen citrate compositions” (priority 2004, published 2006).

Each structure is given as a SMILES string. Like-named read-outs stand apart in the source and are kept apart here.

Series [1] relates to Trichophyton mentagrophytes (ATCC 9533). To be noted: test solutions 100 ppm Ag^+ in water at pH 7.0 (adjusted with NaOH). An excerpt:
(§1) In the Table 58, test solutions contained 100 ppm Ag^+ in water at pH 7.0 (adjusted with NaOH).

Series [2] deals with Trichophyton rubrum (ATCC 10218). The conditions noted are these: test solutions 100 ppm Ag^+ in water at pH 7.0 (adjusted with NaOH).
Description: as §1

In series [3] the test system is Propionibacterium acnes (ATCC 6919). The conditions noted are these: test solutions 100 ppm Ag^+ in water at pH 7.0 (adjusted with NaOH).
Description: as §1

In series [4] the test system is Corynebacterium minutissimum (ATCC 23348). The conditions noted are these: test solutions 100 ppm Ag^+ in water at pH 7.0 (adjusted with NaOH).
Description: as §1

In series [5] the test system is Candida albicans (ATCC 10231). The conditions noted are these: test solutions 100 ppm Ag^+ in water at pH 7.0 (adjusted with NaOH).
Description: as §1

Series [6] concerns Chaetomium globosum (ATCC 6205). The conditions noted are these: test solutions 100 ppm Ag^+ in water at pH 7.0 (adjusted with NaOH).
Description: as §1

Series [7] relates to Malessezia furfur (DSM 6171). To be noted: test solutions 100 ppm Ag^+ in water at pH 7.0 (adjusted with NaOH).
Description: as §1

The test system of series [8] is Epidermophyton floccosum DSM 10709. To be noted: test solutions 100 ppm Ag^+ in water at pH 7.0 (adjusted with NaOH).
Description: as §1

Series [9] has as its system bacteria, fungi and viruses.
For series [10] the following is noted: in a mixture of anion, non-ionic and amphoteric surfactants.
The test system of series [11] is Corynebacterium xerosis (ATCC 373). The source says:
(§2) In the Table 57, test solutions contained 100 ppm Ag^+ in 5% citric acid solution at pH 7.0 (adjusted with NaOH).

For series [12], the system named is Pseudomonas aeruginosa (ATCC 15442). The conditions noted are these: test solutions contained 100 ppm Ag^+ in 5% citric acid solution at pH 7.0 (adjusted with NaOH).
Description: as §2

Series [13] concerns Escherichia coli (ATCC 10536). To be noted: test solutions contained 100 ppm Ag^+ in 5% citric acid solution at pH 7.0 (adjusted with NaOH).
Description: as §2

Series [14] has as its system Staphylococcus aureus (ATCC 6538). The conditions noted are these: test solutions contained 100 ppm Ag^+ in 5% citric acid solution at pH 7.0 (adjusted with NaOH).
Description: as §2

Series [15] deals with several varieties of bacteria.
Description: as §2, §1

For `O=C(O)CC(O)(CC(=O)O)C(=O)[O-].[Ag+]` [Silver dihydrogen citrate, silver dihydrogen citrate], the “Minimum Inhibitory Concentration (MIC)” value is given as 12-24 μg/ml Ag^+ in series [1]; 12-48 μg/ml Ag^+ in series [2]; 6.0 μg/ml Ag^+ in series [3]; 3.0 μg/ml Ag^+ in series [4]; 3.0 μg/ml Ag^+ in [5]; 12-24 μg/ml Ag^+ in series [6]. Moreover, the “Minimum Inhibitory Concentration (MIC)” value in [7] is given as 6.0 μg/ml Ag^+; in series [8], 12-48 μg/ml Ag^+; in series [11] (Corynebacterium xerosis (ATCC 373), test solutions 100 ppm Ag^+ in water at pH 7.0 (adjusted with NaOH)), 3.0 μg/ml Ag^+; in series [11] (test solutions contained 100 ppm Ag^+ in 5% citric acid solution at pH 7.0 (adjusted with NaOH)) it was 2.0 μg/ml Ag^+; in series [12] it was 4.0 μg/ml Ag^+; in series [13], 2.0 μg/ml Ag^+. Moreover, the “Minimum Inhibitory Concentration (MIC)” value in series [14] is recorded as 4.0 μg/ml μg/ml Ag^+. Further, the “antimicrobial activity (in words)” value in series [9] is “antimicrobial activity against a variety of microbes”. For the same compound, in [10], the “time-wise stability of the antimicrobial activity” value is “stable and showed good preservation”. Also, the “effect on several varieties of bacteria (in words)” value in series [15] was “bacteriostatic”.
